We go through 7 compounds from ChEMBL document CHEMBL5465560, “Selectivity Literature for EUbOPEN Chemogenomic Library” (2024).

Test [1] deals with Dual specificity mitogen-activated protein kinase kinase 2 (Homo sapiens) (UniProt P36507). Put plainly: Selectivity interaction (SelectScreen profiling (Invitrogen)) EUB0000607a MAP2K2. The settings on record: at 2 µM.
Test [2] deals with Ephrin type-A receptor 5 (Homo sapiens) (UniProt P54756). Conditions: at 10 µM.
Test [3] concerns the target Tyrosine-protein kinase JAK2 (Homo sapiens, UniProt O60674). Briefly: Selectivity interaction (NanoBRET assay (HEK293T cells)) EUB0001558a JAK2. The format is cell-based, HEK-293T.
Test [4] has as its target TGF-beta receptor type-2 (Homo sapiens) (UniProt P37173). Briefly: Selectivity interaction (KinomeScan (DiscoverX)) EUB0000229b TGFBR2. Conditions: at 10 µM.
Test [5] deals with T1, Mitogen-activated protein kinase kinase kinase 7 (Homo sapiens) (UniProt O43318).
T1 sequence (whole entry): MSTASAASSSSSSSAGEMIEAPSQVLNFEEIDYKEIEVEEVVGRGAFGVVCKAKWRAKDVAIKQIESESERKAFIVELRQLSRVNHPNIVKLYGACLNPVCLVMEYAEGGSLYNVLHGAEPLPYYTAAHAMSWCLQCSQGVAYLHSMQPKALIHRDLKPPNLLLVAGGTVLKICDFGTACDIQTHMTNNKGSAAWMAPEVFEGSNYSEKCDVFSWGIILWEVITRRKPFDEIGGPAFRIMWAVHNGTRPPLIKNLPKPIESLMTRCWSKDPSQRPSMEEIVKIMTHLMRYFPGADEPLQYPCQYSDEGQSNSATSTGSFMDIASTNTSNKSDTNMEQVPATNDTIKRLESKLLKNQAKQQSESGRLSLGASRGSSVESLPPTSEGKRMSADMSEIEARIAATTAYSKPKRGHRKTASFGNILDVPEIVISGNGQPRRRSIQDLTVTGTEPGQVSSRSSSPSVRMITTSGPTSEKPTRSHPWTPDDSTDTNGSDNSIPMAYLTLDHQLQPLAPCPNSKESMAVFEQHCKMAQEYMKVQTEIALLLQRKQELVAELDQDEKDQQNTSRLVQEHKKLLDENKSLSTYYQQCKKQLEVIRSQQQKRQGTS
Put plainly: Selectivity interaction (KinomeScan (DiscoverX)) EUB0001049a MAP3K7. Conditions: at 1 µM.

For test [6], the target named is T2, 5-hydroxytryptamine receptor 3A (Homo sapiens) (UniProt P46098).
T2 sequence (whole entry): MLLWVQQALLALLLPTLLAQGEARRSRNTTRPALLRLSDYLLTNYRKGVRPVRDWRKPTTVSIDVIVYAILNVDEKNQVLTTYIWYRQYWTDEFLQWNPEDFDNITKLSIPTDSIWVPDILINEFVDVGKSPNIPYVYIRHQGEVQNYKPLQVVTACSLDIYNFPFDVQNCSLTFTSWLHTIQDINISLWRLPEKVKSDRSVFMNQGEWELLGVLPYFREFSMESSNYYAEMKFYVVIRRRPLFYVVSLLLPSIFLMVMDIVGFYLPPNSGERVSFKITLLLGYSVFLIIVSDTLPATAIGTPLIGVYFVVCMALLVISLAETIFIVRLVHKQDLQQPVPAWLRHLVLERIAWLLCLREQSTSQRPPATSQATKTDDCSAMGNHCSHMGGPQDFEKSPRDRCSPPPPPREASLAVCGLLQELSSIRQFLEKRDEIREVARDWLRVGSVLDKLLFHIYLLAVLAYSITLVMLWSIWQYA
Briefly: Selectivity interaction (Panel of kinases, GPCRs, ion channels and transporters (enzymatic assay)) EUB0000223bCl HTR3A.

In test [7] the target is T3, Inhibitor of nuclear factor kappa-B kinase subunit alpha (Homo sapiens) (UniProt O15111).
T3 sequence (whole entry): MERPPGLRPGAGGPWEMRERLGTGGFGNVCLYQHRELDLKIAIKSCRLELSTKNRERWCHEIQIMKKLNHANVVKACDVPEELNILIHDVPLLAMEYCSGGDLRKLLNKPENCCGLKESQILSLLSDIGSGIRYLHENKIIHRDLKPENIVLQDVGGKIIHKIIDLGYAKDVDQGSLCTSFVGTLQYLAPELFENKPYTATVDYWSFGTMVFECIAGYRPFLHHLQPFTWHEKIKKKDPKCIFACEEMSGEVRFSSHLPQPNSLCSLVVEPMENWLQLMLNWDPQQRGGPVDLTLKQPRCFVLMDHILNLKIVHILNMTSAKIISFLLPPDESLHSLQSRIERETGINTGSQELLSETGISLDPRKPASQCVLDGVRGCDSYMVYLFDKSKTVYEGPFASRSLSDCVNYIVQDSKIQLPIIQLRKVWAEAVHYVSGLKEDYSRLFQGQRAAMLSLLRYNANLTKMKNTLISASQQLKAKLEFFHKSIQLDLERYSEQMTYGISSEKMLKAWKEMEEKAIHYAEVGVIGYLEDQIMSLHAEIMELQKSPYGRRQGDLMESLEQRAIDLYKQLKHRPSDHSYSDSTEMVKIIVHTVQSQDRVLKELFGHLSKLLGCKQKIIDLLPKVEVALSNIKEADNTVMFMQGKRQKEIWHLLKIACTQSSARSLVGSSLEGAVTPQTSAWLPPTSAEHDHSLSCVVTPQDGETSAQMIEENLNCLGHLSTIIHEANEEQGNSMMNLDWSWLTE
Conditions: at 1 µM.

Ephrin type-A receptor 5 (Homo sapiens), sequence (P54756 whole entry): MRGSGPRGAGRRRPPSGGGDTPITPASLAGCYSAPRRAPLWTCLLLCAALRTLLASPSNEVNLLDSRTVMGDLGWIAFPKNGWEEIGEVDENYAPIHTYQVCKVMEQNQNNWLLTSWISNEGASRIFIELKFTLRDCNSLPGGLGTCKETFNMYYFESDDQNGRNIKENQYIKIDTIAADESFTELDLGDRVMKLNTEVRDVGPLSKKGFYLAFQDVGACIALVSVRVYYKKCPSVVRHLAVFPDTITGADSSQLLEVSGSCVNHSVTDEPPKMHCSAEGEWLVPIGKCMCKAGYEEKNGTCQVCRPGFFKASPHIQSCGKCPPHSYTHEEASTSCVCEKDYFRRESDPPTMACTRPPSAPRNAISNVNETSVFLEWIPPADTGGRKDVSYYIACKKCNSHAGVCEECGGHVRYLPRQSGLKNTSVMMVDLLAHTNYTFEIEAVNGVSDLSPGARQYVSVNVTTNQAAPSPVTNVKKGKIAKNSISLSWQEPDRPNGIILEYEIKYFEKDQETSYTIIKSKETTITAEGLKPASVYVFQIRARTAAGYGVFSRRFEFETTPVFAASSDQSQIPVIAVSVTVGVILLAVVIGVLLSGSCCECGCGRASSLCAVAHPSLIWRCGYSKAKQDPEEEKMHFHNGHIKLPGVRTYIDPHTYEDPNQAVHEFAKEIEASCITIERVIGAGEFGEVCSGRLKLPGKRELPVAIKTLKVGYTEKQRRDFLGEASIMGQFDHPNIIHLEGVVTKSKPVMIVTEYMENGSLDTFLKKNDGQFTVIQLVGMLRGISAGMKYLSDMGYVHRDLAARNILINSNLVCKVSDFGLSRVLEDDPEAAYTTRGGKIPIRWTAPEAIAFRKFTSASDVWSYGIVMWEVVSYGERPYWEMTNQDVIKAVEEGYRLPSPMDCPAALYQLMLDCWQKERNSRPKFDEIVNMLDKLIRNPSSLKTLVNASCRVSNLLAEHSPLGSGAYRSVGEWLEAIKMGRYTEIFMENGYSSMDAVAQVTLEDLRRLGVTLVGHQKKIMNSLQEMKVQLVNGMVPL
Dual specificity mitogen-activated protein kinase kinase 2 (Homo sapiens), sequence (P36507 whole entry): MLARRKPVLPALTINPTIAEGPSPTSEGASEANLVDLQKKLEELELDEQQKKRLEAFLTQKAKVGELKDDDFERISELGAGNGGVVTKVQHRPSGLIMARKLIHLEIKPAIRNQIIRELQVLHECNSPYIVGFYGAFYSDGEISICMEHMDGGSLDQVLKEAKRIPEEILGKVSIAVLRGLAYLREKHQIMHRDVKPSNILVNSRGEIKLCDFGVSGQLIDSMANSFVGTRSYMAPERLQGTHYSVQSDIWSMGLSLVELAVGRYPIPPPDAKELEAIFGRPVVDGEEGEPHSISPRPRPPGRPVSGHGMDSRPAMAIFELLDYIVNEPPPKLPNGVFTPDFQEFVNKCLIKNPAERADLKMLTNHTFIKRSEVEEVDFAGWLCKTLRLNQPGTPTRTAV
TGF-beta receptor type-2 (Homo sapiens), sequence (P37173 whole entry): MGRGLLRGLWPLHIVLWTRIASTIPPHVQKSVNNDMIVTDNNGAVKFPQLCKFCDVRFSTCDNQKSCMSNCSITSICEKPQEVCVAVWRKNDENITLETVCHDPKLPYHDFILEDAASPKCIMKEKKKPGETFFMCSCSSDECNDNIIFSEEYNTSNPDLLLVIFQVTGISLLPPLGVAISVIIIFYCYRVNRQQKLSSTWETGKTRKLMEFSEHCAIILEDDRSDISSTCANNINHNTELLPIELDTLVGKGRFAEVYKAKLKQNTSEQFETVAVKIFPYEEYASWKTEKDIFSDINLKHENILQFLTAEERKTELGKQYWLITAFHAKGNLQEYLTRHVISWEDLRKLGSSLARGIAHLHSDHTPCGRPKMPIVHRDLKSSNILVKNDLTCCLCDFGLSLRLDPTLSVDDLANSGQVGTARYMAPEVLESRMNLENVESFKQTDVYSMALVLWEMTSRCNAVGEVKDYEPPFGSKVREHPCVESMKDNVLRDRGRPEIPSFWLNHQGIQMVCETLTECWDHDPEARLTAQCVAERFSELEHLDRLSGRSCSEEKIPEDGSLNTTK
Tyrosine-protein kinase JAK2, sequence (O60674 whole entry): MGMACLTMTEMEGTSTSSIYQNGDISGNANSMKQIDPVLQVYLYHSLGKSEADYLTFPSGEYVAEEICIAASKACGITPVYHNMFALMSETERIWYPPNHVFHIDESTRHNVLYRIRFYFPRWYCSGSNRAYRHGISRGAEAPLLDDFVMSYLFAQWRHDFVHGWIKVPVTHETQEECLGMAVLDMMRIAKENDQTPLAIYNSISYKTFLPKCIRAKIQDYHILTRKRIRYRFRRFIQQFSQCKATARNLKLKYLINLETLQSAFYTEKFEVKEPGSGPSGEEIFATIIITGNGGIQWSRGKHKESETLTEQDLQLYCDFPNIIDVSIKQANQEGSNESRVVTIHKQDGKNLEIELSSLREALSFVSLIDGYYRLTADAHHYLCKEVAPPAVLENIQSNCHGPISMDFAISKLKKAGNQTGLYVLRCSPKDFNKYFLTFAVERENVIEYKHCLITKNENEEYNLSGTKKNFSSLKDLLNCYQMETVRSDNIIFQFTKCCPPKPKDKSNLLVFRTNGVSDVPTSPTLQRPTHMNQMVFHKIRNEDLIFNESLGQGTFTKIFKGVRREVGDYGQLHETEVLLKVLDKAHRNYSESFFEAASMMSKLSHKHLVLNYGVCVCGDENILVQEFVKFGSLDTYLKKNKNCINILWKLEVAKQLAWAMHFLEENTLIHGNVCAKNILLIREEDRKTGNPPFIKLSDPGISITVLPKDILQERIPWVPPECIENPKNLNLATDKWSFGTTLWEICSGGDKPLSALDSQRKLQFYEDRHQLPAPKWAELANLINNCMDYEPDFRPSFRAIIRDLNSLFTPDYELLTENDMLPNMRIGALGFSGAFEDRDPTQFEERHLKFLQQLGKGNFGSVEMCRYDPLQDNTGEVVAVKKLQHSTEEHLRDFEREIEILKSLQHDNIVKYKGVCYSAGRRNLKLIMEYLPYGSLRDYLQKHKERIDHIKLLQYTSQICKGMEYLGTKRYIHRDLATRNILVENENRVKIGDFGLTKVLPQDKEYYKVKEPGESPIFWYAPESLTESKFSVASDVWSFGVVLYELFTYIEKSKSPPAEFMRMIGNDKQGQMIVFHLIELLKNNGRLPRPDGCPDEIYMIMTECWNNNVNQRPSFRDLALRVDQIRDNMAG

With `CNC(=O)Nc1ccc(-c2nc(N3CC4CCC(C3)O4)c3cnn(C4CCC5(CC4)OCCO5)c3n2)cc1`, the % of inhibition in test [1] worked out at 2%.

`Cc1cc([C@@H](C)Nc2ccccc2C(=O)O)c2nc(N3CCOCC3)cc(=O)n2c1` [AZD-6482] gave a % of control in test [2] of 99%.

The compound `CC(C)(O)[C@H](F)CN1Cc2cc(NC(=O)c3cnn4cccnc34)c(N3CCOCC3)cc2C1=O` gave an EC50 in test [3] above 50 µM.

`COc1cc(N(C)c2ccnc3ccc(C(F)(F)F)cc23)cc(OC)c1OC` displayed a % binding in test [4] of 94%.

`COc1cc(Nc2nc(C)cc(-c3cnn4nc(OC)ccc34)n2)cc(C(F)(F)F)c1` displayed a % of control in test [5] of 73%.

As for `COc1cc(C(=O)N2CC[C@@H](O)[C@@H](N)C2)cc2nc(-c3cc4ccccc4n3CC3CC3)n(C)c12`, in test [6], the pXC50 is 5.9 M.

Take `Cc1ccc(-c2ccc3c(ccc4sc5c(c43)NC[C@@H](C)NC5=O)n2)cn1`: the % of inhibition in test [7] was -5%.
